Test results published in patent publication US11976072B2, “Diacylglycerol kinase modulating compounds” (priority 2021, dated 2024).

Legend:
[1] = test system: Jurkat NFκB-luciferase cells; test: Jurkat NFκB-Luciferase Assay; format: cell-based; conditions: Homo sapiens; Jurkat NFκB-luciferase cells activated with anti-CD3 antibody (OKT3), 2.5 hrs at 37° C.; geometric mean; read-out: DGK NFKb Luciferase EC50
Protocol: The day after, the excess antibody was washed out five times with 100 ul/well of assay medium (RPMI supplemented with 10% fetal bovine serum) using a Biotek EL406 instrument and leaving 20 ul of residual volume in each well. Jurkat NFκB-luciferase cells (Promega #) were harvested and diluted to 1 million cells/ml in assay medium. […] Thirty microliters of medium containing the Jurkat NFκB-luciferase cells were then dispensed using a Biotek MicroFlo instrument in each well of the compound-containing plate. […] Forty microliters of One-Glo Ex (Promega) was then added to the assay mixture and luciferase activity was read on a Envision plate reader 7 minutes later.

[2] = biological target: human DGKα (Homo sapiens, UniProt P23743); test: DGKα Biochemical Activity Assay (ADP-Glo); conditions: recombinant DGKα 1 nM, 100 μM ATP, 18:1 DAG/POPS/octylglucoside micelles, 1 hour at 25° C.; geometric mean; read-out: HTBS DGKa 1X ATP KM IC50;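 also: luminescent detection of ADP produced as DGKα phosphorylates DAG to phosphatidic acid, IC50 from four-parameter nonlinear curve fit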
human DGKα, sequence (P23743 whole entry): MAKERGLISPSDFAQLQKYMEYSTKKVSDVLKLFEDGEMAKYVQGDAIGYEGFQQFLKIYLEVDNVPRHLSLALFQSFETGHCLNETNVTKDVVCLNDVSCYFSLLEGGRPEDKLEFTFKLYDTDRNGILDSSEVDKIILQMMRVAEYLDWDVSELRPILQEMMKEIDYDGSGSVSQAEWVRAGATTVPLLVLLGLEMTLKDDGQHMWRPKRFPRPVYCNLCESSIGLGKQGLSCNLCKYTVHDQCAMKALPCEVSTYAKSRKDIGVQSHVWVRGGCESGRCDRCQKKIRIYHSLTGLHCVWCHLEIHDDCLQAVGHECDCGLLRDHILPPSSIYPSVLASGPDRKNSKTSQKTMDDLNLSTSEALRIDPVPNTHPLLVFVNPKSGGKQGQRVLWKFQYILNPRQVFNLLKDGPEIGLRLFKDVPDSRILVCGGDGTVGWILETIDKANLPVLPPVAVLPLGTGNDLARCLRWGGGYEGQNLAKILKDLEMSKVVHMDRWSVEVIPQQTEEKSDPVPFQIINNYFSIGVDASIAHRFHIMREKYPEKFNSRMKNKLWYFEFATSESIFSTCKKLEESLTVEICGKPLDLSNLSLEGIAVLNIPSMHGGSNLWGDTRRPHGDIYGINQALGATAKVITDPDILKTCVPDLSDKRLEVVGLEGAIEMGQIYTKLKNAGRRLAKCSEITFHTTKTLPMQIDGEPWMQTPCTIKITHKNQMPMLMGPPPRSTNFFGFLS

SMILES	EC50 [1] [nM]	IC50 [2] [nM]
Cc1nnc2nc(N3CCCCc4c(C#CC5CC5)cncc43)c3c(F)c(F)ccc3n12 [Example 1, 5-(6-(cyclopropylethynyl)-2,3,4,5-tetrahydro-1H-pyrido[3,4-b]azepin-1-yl)-6,7-difluoro-1-methyl-[1,2,4]triazolo[4,3-a]quinazoline]	0.897	15.1
Cc1nnc2nc(N3CCCCc4c(C#CC(C)(C)C#N)cncc43)c3c(F)c(F)ccc3n12 [Example 2, 4-(1-(6,7-difluoro-1-methyl-[1,2,4]triazolo[4,3-a]quinazolin-5-yl)-2,3,4,5-tetrahydro-1H-pyrido[3,4-b]azepin-6-yl)-2,2-dimethylbut-3-ynenitrile]	3.13	14.8
Cc1nnc2nc(N3CCCCc4c(C#CC5(C(F)(F)F)CC5)cncc43)c3cc(F)ccc3n12 [Example 3, 7-fluoro-1-methyl-5-(6-((1-(trifluoromethyl)cyclopropyl)ethynyl)-2,3,4,5-tetrahydro-1H-pyrido[3,4-b]azepin-1-yl)-[1,2,4]triazolo[4,3-a]quinazoline]	1.86	35.9
Cc1nnc2nc(N3CCCCc4c(C#CC(C)(C)C#N)cncc43)c3cc(F)ccc3n12 [Example 4, 4-(1-(7-fluoro-1-methyl-[1,2,4]triazolo[4,3-a]quinazolin-5-yl)-2,3,4,5-tetrahydro-1H-pyrido[3,4-b]azepin-6-yl)-2,2-dimethylbut-3-ynenitrile]	6.92	23.9
Cc1nnc2nc(N3CCCCc4c(C#CC5(C)CC5)cncc43)c3cc(F)ccc3n12 [Example 5, 7-fluoro-1-methyl-5-(6-((1-methylcyclopropyl)ethynyl)-2,3,4,5-tetrahydro-1H-pyrido[3,4-b]azepin-1-yl)-[1,2,4]triazolo[4,3-a]quinazoline]	1.19	14.5
Cc1nnc2nc(N3CCCCc4c(C#CC5(C)CC5)cncc43)c3c(F)cccc3n12 [Example 6, 6-fluoro-1-methyl-5-(6-((1-methylcyclopropyl)ethynyl)-2,3,4,5-tetrahydro-1H-pyrido[3,4-b]azepin-1-yl)-[1,2,4]triazolo[4,3-a]quinazoline]	0.692	44.1
Cc1nnc2nc(N3CCCCc4c(C#CC5(C)CC5)cncc43)c3c(F)c(F)ccc3n12 [Example 7, 6,7-difluoro-1-methyl-5-(6-((1-methylcyclopropyl)ethynyl)-2,3,4,5-tetrahydro-1H-pyrido[3,4-b]azepin-1-yl)-[1,2,4]triazolo[4,3-a]quinazoline]	0.747	23.1
Cc1nnc2nc(N3CCCCc4c(C#CC5(C(F)F)CC5)cncc43)c3c(F)c(F)ccc3n12 [Example 8, 5-(6-((1-(difluoromethyl)cyclopropyl)ethynyl)-2,3,4,5-tetrahydro-1H-pyrido[3,4-b]azepin-1-yl)-6,7-difluoro-1-methyl-[1,2,4]triazolo[4,3-a]quinazoline]	1.65	17.7
Cc1nnc2nc(N3CCCCc4c(C#CC5(C(F)(F)F)CC5)cncc43)c3c(F)c(F)ccc3n12 [Example 9, 6,7-difluoro-1-methyl-5-(6-((1-(trifluoromethyl)cyclopropyl)ethynyl)-2,3,4,5-tetrahydro-1H-pyrido[3,4-b]azepin-1-yl)-[1,2,4]triazolo[4,3-a]quinazoline]	1.53	28.5
Cc1nnc2nc(N3CCCc4c(C#CC(C)(C)C#N)cncc43)c3c(F)c(F)ccc3n12 [Example 10, 4-(1-(6,7-difluoro-1-methyl-[1,2,4]triazolo[4,3-a]quinazolin-5-yl)-1,2,3,4-tetrahydro-1,7-naphthyridin-5-yl)-2,2-dimethylbut-3-ynenitrile]	5.87	17.2
Cc1nnc2nc(N3CCCc4c(C#CC5(C(F)F)CC5)cncc43)c3c(F)c(F)ccc3n12 [Example 11, 5-(5-((1-(difluoromethyl)cyclopropyl)ethynyl)-3,4-dihydro-1,7-naphthyridin-1(2H)-yl)-6,7-difluoro-1-methyl-[1,2,4]triazolo[4,3-a]quinazoline]	5.77	13.9
Cc1nnc2nc(N3CCCc4c(C#CC5(C(C)(F)F)CC5)cncc43)c3c(F)c(F)ccc3n12 [Example 12, 5-(5-((1-(1,1-difluoroethyl)cyclopropyl)ethynyl)-3,4-dihydro-1,7-naphthyridin-1(2H)-yl)-6,7-difluoro-1-methyl-[1,2,4]triazolo[4,3-a]quinazoline]	1.85	37.3
Fc1ccc2c(c(N3CCCc4c(C#CC5CCC5)cncc43)nc3nncn32)c1F [Example 13, 5-(5-(cyclobutylethynyl)-3,4-dihydro-1,7-naphthyridin-1(2H)-yl)-6,7-difluoro-[1,2,4]triazolo[4,3-a]quinazoline]	1.01	7.93
Fc1ccc2c(c(N3CCCc4c(C#CC5CC(F)(F)C5)cncc43)nc3nncn32)c1F [Example 14, 5-(5-((3,3-difluorocyclobutyl)ethynyl)-3,4-dihydro-1,7-naphthyridin-1(2H)-yl)-6,7-difluoro-[1,2,4]triazolo[4,3-a]quinazoline]	1.4	8.19
Fc1ccc2c(c(N3CCCc4c(C#CC5(C(F)F)CC5)cncc43)nc3nncn32)c1F [Example 15, 5-(5-((1-(difluoromethyl)cyclopropyl)ethynyl)-3,4-dihydro-1,7-naphthyridin-1(2H)-yl)-6,7-difluoro-[1,2,4]triazolo[4,3-a]quinazoline]	1.91	7.16
CC(F)(F)C1(C#Cc2cncc3c2CCCN3c2nc3nncn3c3ccc(F)c(F)c23)CC1 [Example 16, 5-(5-((1-(1,1-difluoroethyl)cyclopropyl)ethynyl)-3,4-dihydro-1,7-naphthyridin-1(2H)-yl)-6,7-difluoro-[1,2,4]triazolo[4,3-a]quinazoline]	1.54	22.7
Fc1cccc2c1c(N1CCCc3c(C#CC4CC(F)(F)C4)cncc31)nc1nncn12 [Example 17, 5-(5-((3,3-difluorocyclobutyl)ethynyl)-3,4-dihydro-1,7-naphthyridin-1(2H)-yl)-6-fluoro-[1,2,4]triazolo[4,3-a]quinazoline]	1.16	14.7
Fc1cccc2c1c(N1CCCc3c(C#CC4CCC4)cncc31)nc1nncn12 [Example 18, 5-(5-(cyclobutylethynyl)-3,4-dihydro-1,7-naphthyridin-1(2H)-yl)-6-fluoro-[1,2,4]triazolo[4,3-a]quinazoline]	1.5	14.2
Fc1cccc2c1c(N1CCCc3c(C#CC4(C(F)F)CC4)cncc31)nc1nncn12 [Example 19, 5-(5-((1-(difluoromethyl)cyclopropyl)ethynyl)-3,4-dihydro-1,7-naphthyridin-1(2H)-yl)-6-fluoro-[1,2,4]triazolo[4,3-a]quinazoline]	1.53	21.3
Cc1nnc2nc(N(CC(F)F)c3cc(F)cc(C#CC4CCOCC4)c3)c3c(F)cccc3n12 [Example 20, N-(2,2-difluoroethyl)-6-fluoro-N-(3-fluoro-5-((tetrahydro-2H-pyran-4-yl)ethynyl)phenyl)-1-methyl-[1,2,4]triazolo[4,3-a]quinazolin-5-amine]	10.3	30.1
Cc1nnc2nc(N(CC(F)F)c3cc(F)cc(C#CC4(O)CCC4)c3)c3c(F)cccc3n12 [Example 21, 1-((3-((2,2-difluoroethyl)(6-fluoro-1-methyl-[1,2,4]triazolo[4,3-a]quinazolin-5-yl)amino)-5-fluorophenyl)ethynyl)cyclobutan-1-ol]	9.42	21
Cc1nnc2nc(N(CC(F)F)c3cc(F)cc(C#CC4(C)COC4)c3)c3c(F)cccc3n12 [Example 22, N-(2,2-difluoroethyl)-6-fluoro-N-(3-fluoro-5-((3-methyloxetan-3-yl)ethynyl)phenyl)-1-methyl-[1,2,4]triazolo[4,3-a]quinazolin-5-amine]	10.1	18.9
Cc1nnc2nc(N(CC(F)F)c3cc(F)cc(C#CC4COC4)c3)c3c(F)cccc3n12 [Example 23, N-(2,2-difluoroethyl)-6-fluoro-N-(3-fluoro-5-(oxetan-3-ylethynyl)phenyl)-1-methyl-[1,2,4]triazolo[4,3-a]quinazolin-5-amine]	3.46	33.9
Cc1nnc2nc(N(CC(F)F)c3cc(F)cc(C#CC4(C)COC4)c3)c3cc(F)ccc3n12 [Example 24, N-(2,2-difluoroethyl)-7-fluoro-N-(3-fluoro-5-((3-methyloxetan-3-yl)ethynyl)phenyl)-1-methyl-[1,2,4]triazolo[4,3-a]quinazolin-5-amine]	4.7	15.1
Cc1nnc2nc(N(CC(F)F)c3cc(F)cc(C#CC4(C(F)F)CC4)c3)c3c(F)cccc3n12 [Example 25, N-(2,2-difluoroethyl)-N-(3-((1-(difluoromethyl)cyclopropyl)ethynyl)-5-fluorophenyl)-6-fluoro-1-methyl-[1,2,4]triazolo[4,3-a]quinazolin-5-amine]	7.37	30.2
Cc1nnc2nc(N3CCCc4c(C#CC5CCOCC5)cccc43)c3c(F)cccc3n12 [Example 26, 6-fluoro-1-methyl-5-(5-((tetrahydro-2H-pyran-4-yl)ethynyl)-3,4-dihydroquinolin-1(2H)-yl)-[1,2,4]triazolo[4,3-a]quinazoline]	2.46	22.5
Cc1nnc2nc(N3CCCc4c(C#CC5(C)COC5)cccc43)c3c(F)cccc3n12 [Example 27, 6-fluoro-1-methyl-5-(5-((3-methyloxetan-3-yl)ethynyl)-3,4-dihydroquinolin-1(2H)-yl)-[1,2,4]triazolo[4,3-a]quinazoline]	3.52	15.1
